Reference: article PMC10175918 (Communications Biology, 2023)
Read-outs that look alike come from different tables or passages of the source. Blank lines part the entries; values can stand above or below the molecule they belong to.

Tests used:
Experiment in all cases: cell-based
Set-up in all cases: species or system HEK293A; AP-TGFα shedding assay, transfected GPCR plus chimeric Gα mixture, AP release as % of TPA response
Details in all cases: HEK293-A
[1] = molecular target: T1, relaxin/insulin-like family peptide receptor 2 (Homo sapiens, UniProt Q8WXD0)
T1 construct: gene RXFP2

[2] = molecular target: T2, C-C motif chemokine receptor 7 (Homo sapiens, UniProt P32248)
T2 construct: gene CCR7
T2 sequence (P32248 1-378): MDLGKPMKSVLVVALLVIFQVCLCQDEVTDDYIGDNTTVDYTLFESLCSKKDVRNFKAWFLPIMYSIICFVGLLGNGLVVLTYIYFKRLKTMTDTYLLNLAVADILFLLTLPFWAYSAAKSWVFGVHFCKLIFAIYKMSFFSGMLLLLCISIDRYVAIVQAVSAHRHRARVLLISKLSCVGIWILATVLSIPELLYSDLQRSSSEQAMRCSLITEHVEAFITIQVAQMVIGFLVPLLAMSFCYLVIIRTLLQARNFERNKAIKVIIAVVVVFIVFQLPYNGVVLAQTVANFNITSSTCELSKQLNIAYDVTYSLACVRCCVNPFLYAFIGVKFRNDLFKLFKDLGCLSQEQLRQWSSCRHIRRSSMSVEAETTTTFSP

GPR132 = molecular target: T3, GPR132 (Homo sapiens, UniProt Q9UNW8)
T3 sequence (Q9UNW8 1-380): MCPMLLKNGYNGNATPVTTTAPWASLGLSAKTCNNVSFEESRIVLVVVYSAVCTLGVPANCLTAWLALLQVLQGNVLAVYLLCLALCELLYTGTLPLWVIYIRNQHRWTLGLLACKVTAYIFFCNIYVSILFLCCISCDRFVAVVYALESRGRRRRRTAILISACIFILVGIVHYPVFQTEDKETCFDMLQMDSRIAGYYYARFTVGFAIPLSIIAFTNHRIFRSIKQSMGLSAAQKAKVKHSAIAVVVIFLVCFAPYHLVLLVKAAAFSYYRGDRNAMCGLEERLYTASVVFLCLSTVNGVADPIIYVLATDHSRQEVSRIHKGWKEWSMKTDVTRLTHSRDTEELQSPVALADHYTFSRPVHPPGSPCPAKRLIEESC

[3] = molecular target: T4, relaxin/insulin-like family peptide receptor 3 (Homo sapiens, UniProt Q9NSD7)
T4 construct: gene RXFP3
T4 sequence (Q9NSD7 1-469): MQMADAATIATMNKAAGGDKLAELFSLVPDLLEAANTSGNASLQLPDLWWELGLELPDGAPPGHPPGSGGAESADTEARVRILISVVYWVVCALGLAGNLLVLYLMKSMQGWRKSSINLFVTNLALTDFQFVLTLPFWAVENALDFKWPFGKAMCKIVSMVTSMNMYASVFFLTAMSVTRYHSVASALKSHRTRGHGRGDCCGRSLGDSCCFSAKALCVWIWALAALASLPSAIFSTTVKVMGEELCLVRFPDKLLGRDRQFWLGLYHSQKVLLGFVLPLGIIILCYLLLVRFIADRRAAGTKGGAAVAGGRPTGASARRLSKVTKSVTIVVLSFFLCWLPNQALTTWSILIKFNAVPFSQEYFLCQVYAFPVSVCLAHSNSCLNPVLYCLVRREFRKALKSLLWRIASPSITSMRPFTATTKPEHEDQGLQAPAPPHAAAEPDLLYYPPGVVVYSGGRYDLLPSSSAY

[4] = molecular target: T5, chemerin chemokine-like receptor 1 (Homo sapiens, UniProt Q99788)
T5 construct: gene CMKLR1
T5 sequence (Q99788 1-373): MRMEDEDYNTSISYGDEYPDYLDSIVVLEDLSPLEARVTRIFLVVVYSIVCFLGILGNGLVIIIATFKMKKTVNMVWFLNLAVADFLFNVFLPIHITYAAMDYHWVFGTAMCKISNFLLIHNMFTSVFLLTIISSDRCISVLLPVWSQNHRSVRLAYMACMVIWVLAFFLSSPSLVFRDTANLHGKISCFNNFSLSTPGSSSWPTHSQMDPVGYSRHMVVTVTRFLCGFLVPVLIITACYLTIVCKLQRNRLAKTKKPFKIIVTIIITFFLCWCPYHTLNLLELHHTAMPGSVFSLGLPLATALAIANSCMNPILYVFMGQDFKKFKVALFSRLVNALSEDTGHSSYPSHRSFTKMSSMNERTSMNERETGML

[5] = molecular target: T6, G protein-coupled receptor 65 (Homo sapiens, UniProt Q8IYL9)
T6 construct: gene GPR65

[6] = molecular target: T7, prostaglandin E receptor 3 iso6 (Homo sapiens, UniProt P43115)
T7 construct: gene PTGER3; iso6
T7 sequence (P43115 1-390): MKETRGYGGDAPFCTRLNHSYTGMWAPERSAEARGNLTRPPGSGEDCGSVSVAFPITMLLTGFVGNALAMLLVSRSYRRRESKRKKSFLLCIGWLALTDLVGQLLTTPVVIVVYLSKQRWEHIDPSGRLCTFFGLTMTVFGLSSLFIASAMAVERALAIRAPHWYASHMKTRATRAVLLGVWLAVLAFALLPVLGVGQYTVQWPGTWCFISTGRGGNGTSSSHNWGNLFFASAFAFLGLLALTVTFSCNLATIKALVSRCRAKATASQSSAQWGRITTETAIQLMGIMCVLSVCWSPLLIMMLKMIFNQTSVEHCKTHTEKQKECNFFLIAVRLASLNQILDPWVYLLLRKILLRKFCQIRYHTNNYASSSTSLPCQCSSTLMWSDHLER

[7] = molecular target: T8, relaxin/insulin-like family peptide receptor 4 (Homo sapiens, UniProt Q8TDU9)
T8 construct: gene RXFP4

[8] = read-out: % GPCR activation of 10μM GS441524 compared to TPA
[9] = read-out: % GPCR activation of 100μM Favipiravir compared to TPA
[10] = read-out: % GPCR activation of 10µM Molnupiravir compared to TPA
[11] = read-out: % GPCR activation of 10µM Remdesivir compared to TPA
[12] = read-out: % GPCR activation of 10μM Sofosbuvir compared to TPA

T6 sequence (Q8IYL9 whole entry): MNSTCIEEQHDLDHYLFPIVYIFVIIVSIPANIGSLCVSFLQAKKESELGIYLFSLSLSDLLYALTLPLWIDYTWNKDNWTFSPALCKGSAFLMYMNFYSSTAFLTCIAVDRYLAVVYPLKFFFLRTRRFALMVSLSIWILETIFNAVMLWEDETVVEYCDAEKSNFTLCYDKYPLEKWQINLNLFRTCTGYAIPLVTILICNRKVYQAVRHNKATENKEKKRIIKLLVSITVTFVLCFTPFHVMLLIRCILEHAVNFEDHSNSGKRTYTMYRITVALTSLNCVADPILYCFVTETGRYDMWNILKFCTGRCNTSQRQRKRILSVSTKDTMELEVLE
T1 sequence (Q8WXD0 whole entry): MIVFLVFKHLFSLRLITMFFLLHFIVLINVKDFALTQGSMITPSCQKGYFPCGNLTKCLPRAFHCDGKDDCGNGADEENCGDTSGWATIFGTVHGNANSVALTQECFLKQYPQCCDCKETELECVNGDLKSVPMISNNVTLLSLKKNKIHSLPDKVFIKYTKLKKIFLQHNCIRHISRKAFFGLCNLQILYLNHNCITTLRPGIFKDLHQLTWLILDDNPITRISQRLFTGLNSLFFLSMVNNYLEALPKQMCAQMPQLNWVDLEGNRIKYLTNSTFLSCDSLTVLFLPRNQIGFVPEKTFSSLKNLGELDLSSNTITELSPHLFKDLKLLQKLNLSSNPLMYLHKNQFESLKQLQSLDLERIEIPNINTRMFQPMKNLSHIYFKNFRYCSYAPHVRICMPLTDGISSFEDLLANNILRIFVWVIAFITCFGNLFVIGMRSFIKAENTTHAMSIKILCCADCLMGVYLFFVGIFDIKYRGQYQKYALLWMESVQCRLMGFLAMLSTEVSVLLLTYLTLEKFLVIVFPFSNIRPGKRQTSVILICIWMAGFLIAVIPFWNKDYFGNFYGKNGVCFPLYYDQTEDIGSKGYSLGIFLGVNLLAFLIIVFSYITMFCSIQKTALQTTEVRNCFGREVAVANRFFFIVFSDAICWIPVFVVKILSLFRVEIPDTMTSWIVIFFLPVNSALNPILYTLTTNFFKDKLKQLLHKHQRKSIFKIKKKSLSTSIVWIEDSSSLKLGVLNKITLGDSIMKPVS
T8 sequence (Q8TDU9 whole entry): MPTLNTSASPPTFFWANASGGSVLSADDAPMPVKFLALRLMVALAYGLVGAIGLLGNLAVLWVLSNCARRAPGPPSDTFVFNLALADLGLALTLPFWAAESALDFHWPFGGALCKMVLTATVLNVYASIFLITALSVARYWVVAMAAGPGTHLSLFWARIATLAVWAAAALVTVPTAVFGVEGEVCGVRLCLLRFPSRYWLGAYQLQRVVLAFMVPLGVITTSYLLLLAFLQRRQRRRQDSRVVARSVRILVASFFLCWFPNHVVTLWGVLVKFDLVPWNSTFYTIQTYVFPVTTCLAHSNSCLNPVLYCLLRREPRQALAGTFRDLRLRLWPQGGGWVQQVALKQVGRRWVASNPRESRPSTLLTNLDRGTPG

activity at 10 µM [1, 8]: -1.3%
activity at 10 µM [2, 8]: -0.998%
activity at 10 µM [3, 8]: 1.98%
activity at 10 µM [4, 8]: -4.93%
activity at 10 µM [5, 8]: -3.08%
activity at 10 µM [7, 8]: -0.338%
SMILES: N#C[C@@]1(c2ccc3c(N)ncnn23)O[C@H](CO)[C@@H](O)[C@H]1O [GS441524]
activity at 10 µM (GPR132; [8]): -8.13%
activity at 10 µM [6, 8]: -0.459%

activity at 100 µM [1, 9]: -0.673%
activity at 100 µM [2, 9]: -0.335%
activity at 100 µM (GPR132; [9]): 7.4%
activity at 100 µM [3, 9]: 1.4%
activity at 100 µM [4, 9]: 2.98%
activity at 100 µM [5, 9]: 1.28%
activity at 100 µM [6, 9]: 0.28%
activity at 100 µM [7, 9]: 1.69%
SMILES: NC(=O)c1nc(F)cnc1O [favipiravir, 6-fluoro-3-hydroxy-2-pyrazinecarboxamide]

activity at 10 µM [1, 10]: -1.68%
activity at 10 µM [2, 10]: 0.546%
activity at 10 µM (GPR132; [10]): -1.8%
activity at 10 µM [3, 10]: -2.92%
activity at 10 µM [4, 10]: -0.313%
activity at 10 µM [5, 10]: -8.38%
activity at 10 µM [6, 10]: -0.792%
activity at 10 µM [7, 10]: -0.46%
SMILES: CC(C)C(=O)OC[C@H]1O[C@@H](n2ccc(NO)nc2=O)[C@H](O)[C@@H]1O [molnupiravir]

SMILES: CCC(CC)COC(=O)[C@H](C)N[P@](=O)(OC[C@H]1O[C@@](C#N)(c2ccc3c(N)ncnn23)[C@H](O)[C@@H]1O)Oc1ccccc1 [remdesivir]
activity at 10 µM [1, 11]: 0.369%
activity at 10 µM (GPR132; [11]): 11%
activity at 10 µM [3, 11]: 3.55%
activity at 10 µM [4, 11]: -1.38%
activity at 10 µM [5, 11]: -1.39%
activity at 10 µM [6, 11]: 1.47%
activity at 10 µM [7, 11]: 0.997%

SMILES: CC(C)OC(=O)[C@H](C)N[P@](=O)(OC[C@H]1O[C@@H](n2ccc(=O)[nH]c2=O)[C@](C)(F)[C@@H]1O)Oc1ccccc1 [sofosbuvir]
activity at 10 µM [1, 12]: -1.51%
activity at 10 µM [2, 12]: -0.917%
activity at 10 µM (GPR132; [12]): -1.37%
activity at 10 µM [3, 12]: -2.19%
activity at 10 µM [4, 12]: -0.939%
activity at 10 µM [5, 12]: -10.5%
activity at 10 µM [6, 12]: -2.67%
activity at 10 µM [7, 12]: -1.57%
